Some test systems named below: OVCAR-5; RXF 393; OVCAR-3; 786-0; T47D; SK-OV-3; HT-29; K562; SK-MEL-5; MCF7; HOP-92; HL-60; UO-31; U-251; M14; Hs-578T; SR; TK-10; HCC 2998; PC-3.
What all share (test): NCI anticancer screen, dose series, 48 h

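96-well plates; 48 h exposure; 5 concentrations. Endpoints by linear interpolation between flanking doses. Not reached: highest tested concentration assigned. GI50 marks 50% less growth.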 Active and inactive are the calls of the source. No stated cut-off is given here; in the data, active = GI50 up to about 1.1 µM and inactive = higher.

Take `COc1ccc(-n2c(N)c(C#N)c(C#N)c2-c2cccc([N+](=O)[O-])c2)cc1`: the GI50 was > 100 µM (inactive) in the assay on OVCAR-5; 2.55 µM (inactive) in the assay with RXF 393; > 100 µM (inactive) in the assay with OVCAR-3; 33.9 µM (inactive) in the assay with 786-0; 35.2 µM (inactive) in the assay on T47D; 43.7 µM (inactive) in the assay with SK-OV-3. The GI50 in the assay on HT-29 was 25.3 µM (inactive); in the assay on K562, > 100 µM (inactive); in the assay with SK-MEL-5, 22.9 µM (inactive); in the assay on MCF7 it was 61.5 µM (inactive); in the assay with HOP-92, 15.3 µM (inactive); in the assay with HL-60, > 100 µM (inactive). For the same compound, the GI50 in the assay on UO-31 is 15 µM (inactive); in the assay with U-251, 38.8 µM (inactive); in the assay on M14, > 100 µM (inactive); with Hs-578T, 15.3 µM (inactive); in the assay with SR, 18.7 µM (inactive); in the assay on TK-10, > 100 µM (inactive). Further, the GI50 with HCC 2998 was > 100 µM (inactive); with PC-3 it was 33.5 µM (inactive).

For `CCC1=C(CC2NCCc3ccccc32)CC2c3cc(OC)c(OC)cc3CCN2C1` (stereo not given), the GI50 was 0.579 µM (active) in the assay on OVCAR-5; 0.635 µM (active) in the assay on RXF 393; 0.841 µM (active) in the assay on OVCAR-3; 0.338 µM (active) in the assay with 786-0; 0.514 µM (active) with T47D; 1.07 µM (active) in the assay on SK-OV-3. For the same compound, the GI50 with HT-29 is 0.284 µM (active); in the assay with K562, 0.286 µM (active); with SK-MEL-5, 0.585 µM (active); in the assay with MCF7 it was 0.292 µM (active); in the assay on HOP-92, 0.675 µM (active); in the assay on HL-60, 0.847 µM (active). The GI50 was 0.736 µM (active) in the assay with UO-31; 0.55 µM (active) with U-251; 0.502 µM (active) with M14; 0.44 µM (active) in the assay with Hs-578T; 0.342 µM (active) with SR; 0.728 µM (active) with TK-10. For the same compound, the GI50 in the assay with HCC 2998 is 0.432 µM (active); with PC-3 it was 0.333 µM (active).

In the case of `O=C1CSC(c2ccccc2)N1c1ccc(-n2c(-c3ccccc3)nc3ccccc3c2=O)cc1` (stereo not given), the GI50 in the assay on OVCAR-5 is > 100 µM (inactive); in the assay with RXF 393, > 100 µM (inactive); in the assay with OVCAR-3 it was 64.1 µM (inactive); in the assay with 786-0, > 92.9 µM (inactive); in the assay on T47D it was 34.8 µM (inactive); with SK-OV-3, > 100 µM (inactive). For the same compound, the GI50 is 61.4 µM (inactive) in the assay with HT-29; 33.1 µM (inactive) in the assay with K562; 47.4 µM (inactive) with SK-MEL-5; > 92 µM (inactive) in the assay on MCF7; > 61.1 µM (inactive) in the assay on HOP-92; 41.8 µM (inactive) with HL-60. Moreover, the GI50 is 28.4 µM (inactive) with UO-31; 59.8 µM (inactive) in the assay on U-251; > 100 µM (inactive) with M14; > 83.8 µM (inactive) with Hs-578T; 26.9 µM (inactive) in the assay on SR; > 100 µM (inactive) in the assay on TK-10. Moreover, the GI50 with HCC 2998 was > 100 µM (inactive); in the assay with PC-3 it was 33.9 µM (inactive).

Consider `C[n+]1[n-]o/c(=N\N=O)c1-c1cc(-c2/c(=N/N=O)o[n-][n+]2C)cc(-c2/c(=N\N=O)o[n-][n+]2C)c1`, for which the GI50 in the assay on OVCAR-5, in the assay with RXF 393, in the assay with OVCAR-3, with 786-0, in the assay on T47D and with SK-OV-3 was > 100 µM (inactive) each time. The GI50 with HT-29, in the assay on K562, in the assay with SK-MEL-5, with MCF7, with HOP-92 and in the assay with HL-60 was > 100 µM (inactive) in each case. Moreover, the GI50 in the assay with UO-31, with U-251, with M14, in the assay with Hs-578T, in the assay with SR and in the assay on TK-10 was > 100 µM (inactive) in each case. Besides, the GI50 in the assay on HCC 2998 and with PC-3 was > 100 µM (inactive) throughout.

Regarding `O=S1(=O)c2ccccc2C(=NO)c2ccccc21`, the GI50 in the assay on OVCAR-5 is > 100 µM (inactive); with RXF 393, 24.8 µM (inactive); in the assay on OVCAR-3, 39.7 µM (inactive); in the assay with 786-0, > 100 µM (inactive); with T47D, 80 µM (inactive); in the assay on SK-OV-3, > 100 µM (inactive). The GI50 with HT-29 was > 100 µM (inactive); with K562, 68.2 µM (inactive); in the assay on SK-MEL-5, 70.3 µM (inactive); in the assay on MCF7, > 100 µM (inactive); with HOP-92, > 100 µM (inactive); in the assay with HL-60, 14.8 µM (inactive). In addition, the GI50 in the assay with UO-31 was 28.2 µM (inactive); in the assay on U-251, > 100 µM (inactive); in the assay on M14 it was > 100 µM (inactive); in the assay on Hs-578T, 63.8 µM (inactive); in the assay on SR, 29.8 µM (inactive); in the assay with TK-10, > 100 µM (inactive). Besides, the results for the GI50 in the assay on HCC 2998 and with PC-3 were > 100 µM (inactive) and 43.4 µM (inactive), respectively.

With `OCC1CCCCN1Cc1nc2cc(Cl)ccc2[nH]1` (stereo not given), the GI50 with OVCAR-5 was > 100 µM (inactive); in the assay with RXF 393, 65 µM (inactive); with OVCAR-3, > 100 µM (inactive); in the assay on 786-0 it was > 100 µM (inactive); in the assay with T47D, > 100 µM (inactive); with SK-OV-3, > 100 µM (inactive). The GI50 in the assay on HT-29 was 56.1 µM (inactive); with K562 it was > 100 µM (inactive); in the assay on SK-MEL-5, > 100 µM (inactive); with MCF7, > 100 µM (inactive); in the assay on HOP-92, > 100 µM (inactive); in the assay on HL-60, > 100 µM (inactive). For the same compound, the GI50 with UO-31, with U-251, with M14, in the assay with Hs-578T, in the assay with SR and in the assay with TK-10 was > 100 µM (inactive) each time. Also, the GI50 in the assay with HCC 2998 was > 100 µM (inactive); in the assay on PC-3, 55.2 µM (inactive).

As for `COC(=O)[C@]1(CCC(C)=O)C(=O)C=CN([C@H](C)c2ccccc2)[C@@H]1Cc1ccc(OC)c(OCc2ccccc2)c1I`, the GI50 in the assay with OVCAR-5 was 22.7 µM (inactive); with RXF 393, 11.4 µM (inactive); with OVCAR-3, 16.8 µM (inactive); with 786-0 it was 17.8 µM (inactive); in the assay on T47D, 13.5 µM (inactive); with SK-OV-3 it was 35.4 µM (inactive). In addition, the GI50 was 14.6 µM (inactive) in the assay with HT-29; 17.8 µM (inactive) in the assay on K562; 13.9 µM (inactive) with SK-MEL-5; 19.2 µM (inactive) in the assay with MCF7; 6.08 µM (inactive) in the assay with HOP-92; 24 µM (inactive) with HL-60. For the same compound, the GI50 in the assay on UO-31 was 15.2 µM (inactive); in the assay with U-251, 17.3 µM (inactive); in the assay on M14, 15 µM (inactive); with Hs-578T, 24 µM (inactive); with SR it was 15.7 µM (inactive); in the assay with TK-10 it was 21.5 µM (inactive). The GI50 with HCC 2998 was 14.2 µM (inactive); in the assay with PC-3, 16.6 µM (inactive).

For the compound `CC(=O)O[C@H]1C(=O)[C@@]2(C)C(C(OC(=O)c3ccccc3)[C@]3(O)C[C@H](OC(=O)C(OC(=O)CCCC(=O)NCCCN(C)C)C(NC(=O)c4ccccc4)c4ccccc4)C(C)=C1C3(C)C)C1(OC(C)=O)COC1C[C@@H]2O` (stereo not given in full), the GI50 in the assay on OVCAR-5 was < 0.0139 µM (active); with RXF 393 it was 0.0171 µM (active); with OVCAR-3 it was < 0.01 µM (active); in the assay with 786-0, 0.0134 µM (active); in the assay on T47D, 0.149 µM (active); in the assay with SK-OV-3 it was 0.0141 µM (active). Also, the GI50 was < 0.01 µM (active) with HT-29; < 0.01 µM (active) with K562; < 0.01 µM (active) in the assay with SK-MEL-5; < 0.01 µM (active) in the assay on MCF7; 2.19 µM (inactive) in the assay on HOP-92; < 0.01 µM (active) with HL-60. Also, the GI50 in the assay on UO-31 is 1.02 µM (active); in the assay on U-251 it was < 0.01 µM (active); with M14, < 0.01 µM (active); in the assay with Hs-578T it was < 0.01 µM (active); in the assay with SR, < 0.01 µM (active); in the assay on TK-10, 0.0425 µM (active). Besides, the GI50 in the assay with HCC 2998 and with PC-3 was < 0.01 µM (active) throughout.

`CCCCCCCCCCCCCCCC(=O)OCC1OC(n2ccc(N)nc2=O)C(O)C1O` (stereo not given): the GI50 is > 38 µM (inactive) in the assay on OVCAR-5; > 85.3 µM (inactive) with RXF 393; > 28.2 µM (inactive) in the assay on OVCAR-3; 4.29 µM (inactive) in the assay on 786-0; > 100 µM (inactive) with T47D; 15.5 µM (inactive) with SK-OV-3. The GI50 with HT-29 was 35.2 µM (inactive); with K562, 8.24 µM (inactive); in the assay on SK-MEL-5, 18.5 µM (inactive); in the assay with MCF7, 1.06 µM (active); in the assay on HOP-92, > 28.8 µM (inactive); with HL-60, 0.59 µM (active). Moreover, the GI50 was 1.67 µM (inactive) with UO-31; 21.8 µM (inactive) in the assay with U-251; 0.931 µM (active) in the assay with M14; > 100 µM (inactive) in the assay with Hs-578T; 1.5 µM (inactive) with SR; > 96.4 µM (inactive) in the assay with TK-10. The GI50 with HCC 2998 was 8.47 µM (inactive); with PC-3, > 100 µM (inactive).

Take `O=c1c2ccccc2n2nnc3ccc(NCCNCCO)c1c32`: the GI50 was 2.34 µM (inactive) in the assay on OVCAR-5; 1.87 µM (inactive) in the assay on RXF 393; 1.7 µM (inactive) in the assay on OVCAR-3; 1.02 µM (active) with 786-0; 5.82 µM (inactive) with T47D; 2.08 µM (inactive) in the assay with SK-OV-3. The GI50 is 0.74 µM (active) in the assay with HT-29; 1.61 µM (inactive) in the assay on K562; 1.53 µM (inactive) in the assay on SK-MEL-5; 3.24 µM (inactive) in the assay on MCF7; 1.88 µM (inactive) in the assay on HOP-92; 1.71 µM (inactive) in the assay with HL-60. Also, the GI50 is 0.863 µM (active) with UO-31; 0.944 µM (active) in the assay with U-251; 1.91 µM (inactive) in the assay on M14; 2.03 µM (inactive) in the assay with Hs-578T; 0.649 µM (active) with SR; 2.79 µM (inactive) in the assay on TK-10. For the same compound, the GI50 is 1.51 µM (inactive) with HCC 2998 and 1.29 µM (inactive) with PC-3.
